According to patent US9353155B2, “Cell-penetrating peptides” (Universite Pierre et Marie Curie (Paris 6), priority 2011, dated 2016):
No end group written: not given here.

How the values were obtained:
[1] = assay type: in vitro ADME, human
Experimental: The ratio of intensity of each pick is represented, relative to its own control. The R residue was mutated to K (Mut1-DPT-C9h), N (Mut2-DPT-C9h) or A (Mut3-DPT-C9h). Round: control DPT-C9h peptide (SEQ ID NO:6), Square: Mut1-DPT-C9h, Triangle: Mut2-DPT-C9h, Diamond: Mut3-DPT-C9h.
Analysis Peptide Stability in Human Serum
Analysis of peptides degradation was done by Proteominer and Maldi-Tof as previously described.

[2] = test system: tumoral B cells isolated from chronic lymphocyte leukemia patients; conditions: cited from earlier work
[3] = test system: human breast cancer xenograft; conditions: injected in mice bearing human breast cancer xenograft; cited from earlier work
human cell lines = conditions: cited from earlier work

Substance | degradation upon contact with human serum [1] | effect on healthy cells [2] | apoptotic effect ([2]; tumoral B cells isolated from chronic lymphocyte leukemia patients) | size of tumor [3] | induction of apoptosis (human cell lines)
VKKKKIKAEIKIYVETLDDIFEQWAHSEDL [Mut3-DPT-C9h, VKKKKIKAEIKI-YVETLDDIFEQWAHSEDL] | not degraded | – | – | – | –
VKKKKIKREIKI-YVETLDDIFEQWAHSEDL (VKKKKIKREIKIYVETLDDIFEQWAHSEDL; cell penetrating peptide) [DPT-C9h, control] | – | without effect | specific apoptotic effect | important reduction | induces apoptosis
